Where two headings read alike, the source gives them in different places. Bounds are passed on as bounds.

Assay [1] concerns RB1^WT G401 cells. Description: Flow cytometry cell cycle analysis (EdU/propidium iodide), G401 RB1^WT. Type of assay: cell-based. The settings on record: 1 μM TAZ, 11 days. As for the experimental part:
(§1) On Day 11, cells were pulsed with EdU for 1 hour. Cells were then harvested and processed for flow cytometry using the manufacturer's protocol (Click-iT, Invitrogen). Briefly, cells were washed with PBS with 1% BSA, permeabilized, and incubated with AlexaFluor647 for 30 minutes. DNA content was measured using propidium iodide (0.05 μg/μL). Cells were analyzed on a CytoFLEX LX (Beckman Coulter).
In general terms: Flow cytometry measures light scatter and fluorescence of single cells or particles in a stream.

A further assay relates to G401 cells. Conditions: single drug, 7 days; DMSO 0.061.
The subject of another assay is MRT and ES cell lines. As to the kind of experiment: TAZ dose-response curves in a panel of MRT and ES cell lines. Type of assay: cell-based. The settings on record: 13 days, AUC integrated from 40 nM to 50 μM. The protocol:
(§2) Drug and media were replaced on Days 4, 7, and 11. CellTiter-Glo assays were performed on Day 14, with luminescence readings taken using an automated fluorescence plate reader (Tecan). CellTiter-Glo reagent was freshly reconstituted on the day of measurement and added in a 1:1 proportion to cell media. […] Cell line doubling time was determined by measuring cell viability every 24 hours over the course of 4 days, and fitting the cell viability to a two-parameter exponential curve. […] After the addition of cells, drugs were added using a pin tool (stainless steel pins with 50 nL slots, V&P Scientific) mounted onto a liquid handling robot (CyBio Well vario, Analytik Jena). For analysis of synergy, we used the synergyFinder package (2). Outliers due to pinning errors were excluded after manual examination.

The subject of assay [2] is RB1^del G401 cells. As to the kind of experiment: Flow cytometry cell cycle analysis (EdU/propidium iodide), G401 RB1^del clones. Type of assay: cell-based. The settings on record: 1 μM TAZ, 11 days. As for the experimental part: as §1
A further assay addresses T1, CHK1 (Homo sapiens, UniProt O14757).
T1 construct: endogenous in cells; host or cells: G401 rhabdoid tumor cells
T1 sequence (O14757 1-476): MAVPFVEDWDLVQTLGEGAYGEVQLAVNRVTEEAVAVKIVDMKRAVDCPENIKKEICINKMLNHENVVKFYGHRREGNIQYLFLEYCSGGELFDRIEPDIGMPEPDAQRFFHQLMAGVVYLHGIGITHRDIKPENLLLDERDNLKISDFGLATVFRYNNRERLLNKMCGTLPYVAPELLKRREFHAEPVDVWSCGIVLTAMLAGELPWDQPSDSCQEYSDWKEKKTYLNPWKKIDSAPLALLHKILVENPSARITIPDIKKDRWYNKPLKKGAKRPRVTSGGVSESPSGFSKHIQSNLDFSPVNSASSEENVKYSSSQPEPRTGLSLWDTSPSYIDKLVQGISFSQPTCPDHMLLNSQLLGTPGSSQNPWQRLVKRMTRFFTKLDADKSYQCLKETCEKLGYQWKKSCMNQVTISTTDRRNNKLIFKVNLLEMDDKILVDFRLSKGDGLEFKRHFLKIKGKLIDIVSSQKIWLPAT
Description: Western blot of CHK1 autophosphorylation at S296. Conditions: SRA737 3 μM, 2 days. Type of assay: cell-based. The protocol:
To assess protein expression by Western immunoblotting, pellets of 1 million cells were prepared and washed once in cold PBS. Cells were resuspended in 100-130 μL of RIPA lysis buffer (50 mM Tris-HCl, pH 8.0, 150 mM NaCl, 1.0% NP-40, 0.5% sodium deoxycholate, 0.1% sodium dodecyl sulfate) and incubated on ice for 10 minutes. Cell suspensions were then disrupted using a Covaris S220 adaptive focused sonicator for 5 minutes (peak incident power: 35W, duty factor: 10%, 200 cycles/burst) at 4° C. Lysates were cleared by centrifugation at 18,000 g for 15 min at 4° C. Protein concentration was assayed using the DC Protein Assay (Bio-Rad) and 15-35 μg whole cell extract was used per sample. Samples were boiled at 95° C. in Laemmli buffer (Bio-Rad) with 40 mM DTT and resolved using sodium dodecyl sulfate-polyacrylamide gel electrophoresis. Proteins were transferred to Immobilon FL PVDF membranes (Millipore), and membranes were blocked using Intercept Blocking buffer (Li-Cor). […] Blotted membranes were visualized using goat secondary antibodies conjugated to IRDye 680RD or IRDye 800CW (Li-Cor, 926-68071 and 926-32210) at 1:15,000 and the Odyssey CLx fluorescence scanner, according to manufacturer's instructions (Li-Cor). […]

For assay [3], the system named is EZH2^Y666N expressing G401 rhabdoid tumor cells. Description: Cell viability (CellTiter-Glo), G401 clones expressing doxycycline-inducible EZH2^Y666N. Type of assay: cell-based. Conditions: 10 μM drug, 14 days. As for the experimental part: as §2
Assay [4] relates to RB1^del G401 cells. As to the kind of experiment: Cell viability (CellTiter-Glo), G401 RB1^del clones E1 and F2. Type of assay: cell-based. Conditions: for overcoming TAZ resistance in RB1^del G401 cells: seleciclib, alisertib 9 days, barasertib 6 days; for EC50: Homo sapiens, G-401, 144 h, barasertib for 6 days, read-out: half-maximal effective concentration. The protocol: G401 cells with RB1 mutations were engineered by Synthego. […] Ribonucleprotein containing spCas9 and sgRNA was transfected into G401 cells by electroporation. […] The cells were then single-cell cloned and re-verified by Sanger sequencing.
as §2, with “CellTiter-Glo assays were performed on Day 14, with luminescence readings taken using an automated fluorescence plate reader (Tecan).” left out
A general note: Cellular ATP, detected with luciferase, serves as a proxy for viable cell number.

In assay [5] the test system is RB1^WT G401 cells. As to the kind of experiment: Cell viability (CellTiter-Glo) dose response, G401 RB1^WT. Type of assay: cell-based. The settings on record: Homo sapiens, G-401, 144 h, barasertib for 6 days, read-out: half-maximal effective concentration. The protocol: as §2

Regarding `CCN(c1cc(-c2ccc(CN3CCOCC3)cc2)cc(C(=O)NCc2c(C)cc(C)[nH]c2=O)c1C)C1CCOCC1` [TAZ, Tazemetostat], the “proportion of cells in G1 phase upon TAZ treatment” value in the assay with RB1^WT G401 cells [1] stood at 50%; in the assay with RB1^del G401 cells [2] (RB1^del E1 clone), 31%; in the assay with RB1^del G401 cells [2] (RB1^del F2 clone), 28%. In addition, the “nuclear γH2AX fluorescence, median normalized level” value in the assay on G401 cells is 0.12. Further, the “area under the curve (AUC) of TAZ dose responses” value is reported as not above 0.3 in the assay on MRT and ES cell lines (resistant ES1, VAESBJ, ES2, EPI544, MP-MRT-AN cell lines); more than 0.3 in the assay on MRT and ES cell lines (sensitive G401, KP-MRT-NS, TTC642, A204, TM8716, KP-MRT-RY cell lines).

On to `N#Cc1cnc(Nc2cc(NC[C@H]3CNCCO3)c(C(F)(F)F)cn2)cn1` [SRA737], for which the CHK1 auto-phosphorylation result on CHK1 is listed as “effective suppression”.

Take `Cc1ncccc1-c1cnc(NCc2c(F)ccc3c2CCO3)n2cnnc12` [MAK683]: the “cell viability of EZH2^Y666N clones versus wild-type EZH2” value in assay [3] is “overcomes EZH2^Y666N-mediated resistance”.

Regarding `Cc1cc(C)c(CNC(=O)c2cc(Cl)c3c(c2C)O[C@@](C)([C@H]2CC[C@H](N(C)C)CC2)O3)c(=O)[nH]1` [valemetostat], the “cell viability of EZH2^Y666N clones versus wild-type EZH2” value in assay [3] is reported as “confers resistance”.

As to `COc1cc(Nc2ncc3c(n2)-c2ccc(Cl)cc2C(c2c(F)cccc2OC)=NC3)ccc1C(=O)O` [alisertib], the “overcoming TAZ resistance in RB1^del G401 cells” value with RB1^del G401 cells [4] is recorded as “able to overcome TAZ resistance”.

For `CC[C@H](CO)Nc1nc(NCc2ccccc2)c2ncn(C(C)C)c2n1` [seleciclib], in the assay on RB1^del G401 cells [4], the “overcoming TAZ resistance in RB1^del G401 cells” value was “able to overcome TAZ resistance”.

As to `CCN(CCCOc1ccc2c(Nc3cc(CC(=O)Nc4cccc(F)c4)n[nH]3)ncnc2c1)CCOP(=O)(O)O` [barasertib], the EC50 with RB1^WT G401 cells [5] was 6.5 ± 0.5 nM; in the assay with RB1^del G401 cells [4] (G401 RB1^del E1 clone) it was 5.5 ± 0.6 nM; in the assay on RB1^del G401 cells [4] (G401 RB1^del F2 clone), 5.9 ± 0.9 nM.
